Entries after “also recorded” stand apart in the source; their conditions may differ. Where two headings read alike, the source gives them in different places.

One assay has as its system murrel pituitary cells. Nature of the assay: GtH release from murrel pituitary cell incubations, GtH measured by RIA. The assay is classed as cell-based, Indian Murrel. The note with it: for GtH released: Table 4, 2 μg GnRH fractions, mean ± SEM of five experiments, species of cells not given; for increase gonadotropin release: fold increase of gonadotropin release. As to the method: Meanwhile Jamaluddin et al, (Gen comp Endocrinology May 1989; 74(2): 190–8) of applicants laboratory developed a very dependable GnRH bioassay. Basic principle of this bioassay is to get the release of GTH from murrel primary pituitary cell culture and determine the amount of GTH released by GTH-RIA. […]
These three acetone fractions were extracted with petroleum ether (40–60° C.) to remove acetone, lipids and other hydrophobic substances. The final precipitates were centrifuged at 8,000 g for 15 min at 4° C. and the residues were stored at −80° C. until further use.

The test system of assay [1] is Catla catla pituitary cells. Nature of the assay: gonadotropin release from carp pituitaries in response to murrel GnRH I and II. The assay is classed as cell-based. The settings on record: 2 μg GnRH fractions. The source says:
(§1) Meanwhile Jamaluddin et al, (Gen comp Endocrinology May 1989; 74(2): 190–8) of applicants laboratory developed a very dependable GnRH bioassay. Basic principle of this bioassay is to get the release of GTH from murrel primary pituitary cell culture and determine the amount of GTH released by GTH-RIA. […] Moreover, these two GnRHs act almost equally in different species of carp indicating no species barrier (As shown below in Table 3).

For assay [2], the system named is Cirrhinus mrigala pituitary cells. Described as above. The settings on record: 2 μg GnRH fractions. The assay is classed as cell-based.
Text: as §1

Assay [3] concerns Cyprinus carpio pituitary cells. Described as above. The settings on record: 2 μg GnRH fractions. The assay is classed as cell-based.

As to “QHWSAWRLPG (channa punctatus) [muGnRH I]”, the “GnRH activity on the basis of GTH release from in vitro pituitary cell culture” value with murrel pituitary cells is reported as “highly active”; in the assay with murrel pituitary cells (listed as QRP H), “GnRH was found to be located”. Besides, the GtH released in the assay with murrel pituitary cells is 73.3 ± 2.2 ng/6 × 10^4 cells. The increase gonadotropin release entry in the assay with murrel pituitary cells is “about 30 times”. Further, the figures for the “GtH II released” value in assay [1], in assay [2] and in assay [3] were 74.5 ± 2.32 ng/6 × 10^4 cells, 72.0 ± 2.13 ng/6 × 10^4 cells and 73.8 ± 2.51 ng/6 × 10^4 cells, respectively.

With “QHWSWGILPG (channa punctatus) [muGnRH II]”, the “GnRH activity on the basis of GTH release from in vitro pituitary cell culture” value was “more active gonadotropin releasing hormone than muGnRH I; also recorded: highly active; also recorded: slightly more active” in the assay with murrel pituitary cells and “GnRH was found to be located” in the assay on murrel pituitary cells (listed as SRP H). Further, the GtH released in the assay on murrel pituitary cells is reported as 79.2 ± 3.12 ng/6 × 10^4 cells. The increase gonadotropin release result in the assay with murrel pituitary cells is “about 35 times”. In addition, the figures for the “GtH II released” value in assay [1], in assay [2] and in assay [3] were 82.6 ± 3.02 ng/6 × 10^4 cells, 80.1 ± 2.61 ng/6 × 10^4 cells and 81.7 ± 3.12 ng/6 × 10^4 cells, respectively.

With “des-Gly^10,[D-Ala^6]-LHRH [GnRH superactive analogue, reference compound]”, in the assay on murrel pituitary cells, the GtH released was 68.0 ± 2.32 ng/6 × 10^4 cells.

“mammalian GnRH: mammalian gonadotropin releasing hormone decapeptide, comparator (QHWSYGLRPG; Gonadoliberin-1; UniProt P01148 24-33, looked up) [reference compound]”: the GtH released with murrel pituitary cells came out at 49.9 ± 2.02 ng/6 × 10^4 cells.
